Assay results as given in patent US9539248B2, “Agent for ameliorating chronic obstructive pulmonary disease” (LTT BIO-PHARMA CO., LTD., priority 2012, dated 2017).

Tests used:
[1] = test system: methacoline-induced airway constriction; assay: Test Example 9: rectal administration in methacoline-induced airway constriction; format: in vivo, mice; conditions: different doses (mg/kg) (FIG. 25)
Procedure: Increase in airway resistance induced by methacoline was measured. 4 to 6 week old ICR mice received 1 mg/mL methacoline by nebulization over 20 seconds and this was repeated five times. After administration of methacoline was completed, the airway resistance was measured by a snap shot technique. All the data were analyzed by using FlexiVent software. Different doses (mg/kg) of mepenzolate were administered intrarectally and airway resistance induced by methacoline was measured by a similar method to that in Test Example 4.

[2] = test system: porcine pancreatic elastase-induced inflammation; assay: Test Example 5: porcine pancreatic elastase-induced inflammation (BALF cell counts and cytokines); format: in vivo, ICR mice
Procedure: Different doses of mepenzolate were administered to 4 to 6 week old ICR mice once via the airway. 100 μg of porcine pancreatic elastase per mouse was administered one hour after administration of mepenzolate. Bronchoalveolar lavage fluid (BALF) was collected from the lung 24 hours after administration of porcine pancreatic elastase and a total cell count and a neutrophil count were measured. Furthermore, the total number of TNF-α, MIP-2, MCP-1, or KC in the bronchoalveolar lavage fluid when 38 μg/kg of mepenzolate was administered via the airway was measured by an ELISA method.

[3] = test system: porcine pancreatic elastase-induced pulmonary emphysema and altered lung function; assay: Test Example 7: oral administration in porcine pancreatic elastase-induced pulmonary emphysema and altered lung function; format: in vivo, ICR mice; conditions: oral administration once daily for 14 days, different doses (mg/kg) (FIG. 18 to 20)
Procedure: (§1) 100 μg of porcine pancreatic elastase per mouse was administered to 4 to 6 week old ICR mice once via the airway. Then, different doses (mg/kg) of mepenzolate were administered to the mice orally once daily for 14 days. After administration, sections of the lung tissues were excised. Subsequently, the sections were subjected to H&E dyeing, MLI measurement, and elastance measurement performed by a similar method to that in Test Example 1.

[4] = test system: porcine pancreatic elastase-induced COPD model; assay: Test Example 8: rectal administration in porcine pancreatic elastase-induced COPD model, lung damage (H&E, MLI, elastance, FEV0.05/FVC); format: in vivo, ICR mice; conditions: intrarectal once daily for 14 days, different doses (mg/kg) (FIG. 22 to 24)
Procedure: as §1, with “airway to induce damage in the lung. Furthermore,” for “airway. Then,”, “intrarectally” for “orally”

[5] = test system: pulmonary emphysema and altered lung function resulting from smoking; assay: Test Example 6: pulmonary emphysema and altered lung function resulting from smoking; format: in vivo, DBA/2 mice; conditions: cigarette smoke 6 weeks
Procedure: Three-times-a-day exposure to smoking and once-a-day coadministration of 38 μg/kg of mepenzolate were performed on 5 week old DBA/2 mice, 5 days a week (Monday to Friday) for 6 weeks. The mice were subjected to only smoking during the final week. The mice were subjected to smoking by the method described below. 15 to 20 mice were placed in a 45 L chamber and the chamber was connected to a cigarette smoke generator. Commercially available unfiltered cigarette that produced 28 mg of tar and 2.3 mg of nicotine were used. The mice were exposed to smoke of one cigarette over 35 minutes, which was repeated three times a day for five days a week. This was continued for 6 weeks. The mice were made to inhale the cigarette smoke 15 times over a 5-minute period. Mepenzolate was administered to the mice by inhalation. After smoking was completed, the mice were euthanized, sections of the lung tissues were prepared and dyed with H&E, and stained images were obtained by electron microscopy. The airspace size in the cells in the H&E stained images obtained above was measured as a mean linear intercept. Then, the total respiratory system elastance and the tissue elastance were measured by a similar method to that in Test Example 1.

[6] = test system: porcine pancreatic elastase pretreatment-induced pulmonary emphysema and altered lung function; assay: Test Example 2: porcine pancreatic elastase pretreatment-induced pulmonary emphysema and altered lung function; format: in vivo, ICR mice
Procedure: 100 μg of porcine pancreatic elastase per mouse and different doses of mepenzolate were dissolved in 30 μL of phosphate buffered saline (PBS) per mouse and this solution was injected into the airway of a mouse anesthetized with chloral hydrate by a micropipette.
(§2) Lung function and airway resistance were measured by using a computer-controlled small animal ventilator (FlexiVent, SCIREQ Scientific Respiratory Equipment Inc.).
A mouse was anesthetized with chloral hydrate, a tracheostomy was performed, and an 8 mm metal tube was inserted into the trachea. Ventilation was performed on the mouse with a volume of 8.7 mL/kg, a positive end-expiratory pressure of 2 to 3 cmH2O, and a respiratory rate of 150 times/min.
Total respiratory system elastance was measured by a snap shot technique and tissue elastance was measured by a forced oscillation technique.
After 4 to 6 week old ICR mice were used and treated with porcine pancreatic elastase by a similar method to that in Test Example 1, different doses (μg/kg) of mepenzolate were administered to these mice via the airway once daily from 14 days to 20 days after the treatment. Then, the mice were euthanized, sections of the lung tissues were prepared and dyed with H&E, and stained images were obtained by electron microscopy.
Subsequently, the airspace size in the cells in the obtained H&E stained images was measured as a mean linear intercept.
Then, on Day 21, the total respiratory system elastance and the tissue elastance were measured by a similar method to that in Test Example 1.

[7] = test system: porcine pancreatic elastase-induced COPD model; assay: Test Example 8: rectal administration in porcine pancreatic elastase-induced COPD model, inflammatory cells in alveolar lavage fluid; format: in vivo, ICR mice; conditions: intrarectal once daily, lavage fluid collected 3 days later (FIG. 21)
Procedure: 100 μg of porcine pancreatic elastase per mouse was administered to 4 to 6 week old ICR mice once via the airway to induce damage in the lung. Different concentrations of mepenzolate were administered intrarectally once daily. The alveolar lavage fluid was collected 3 days later and the total cell count was counted. The neutrophil count was also counted by dyeing the cells by a Diff-Quick technique.

[8] = test system: porcine pancreatic elastase-induced pulmonary emphysema and altered lung function; assay: Test Example 1: porcine pancreatic elastase-induced pulmonary emphysema and altered lung function, mepenzolate via the airway or by inhalation; format: in vivo, ICR mice; conditions: for damage in the alveolar wall: H&E sections; for mean linear intercept (MLI): PPE 100 μg per mouse
Procedure: 100 μg of porcine pancreatic elastase per mouse and different doses of mepenzolate were dissolved in 30 μL of phosphate buffered saline (PBS) per mouse and this solution was injected into the airway of a mouse anesthetized with chloral hydrate by a micropipette. A mouse was placed in a chamber. Then, the whole amount of a mepenzolate solution prepared by dissolving mepenzolate in 10 mL of PBS was sprayed onto the mouse over 30 minutes by using an ultrasonic nebulizer (NE-U07, manufactured by OMRON Corporation) that was connected to the chamber. Lung function and airway resistance were measured by using a computer-controlled small animal ventilator (FlexiVent, SCIREQ Scientific Respiratory Equipment Inc.). A mouse was anesthetized with chloral hydrate, a tracheostomy was performed, and an 8 mm metal tube was inserted into the trachea. Ventilation was performed on the mouse with a volume of 8.7 mL/kg, a positive end-expiratory pressure of 2 to 3 cmH2O, and a respiratory rate of 150 times/min. Total respiratory system elastance was measured by a snap shot technique and tissue elastance was measured by a forced oscillation technique. Data analysis was conducted by using FlexiVent software. A lung damage model for pulmonary emphysema and altered lung function was generated by administering 100 μg of porcine pancreatic elastase per mouse to 4 to 6 week old ICR mice once via the airway. Different doses of mepenzolate were administered to these mice via the airway (μg/kg) or by inhalation (μg/chamber) once daily for 14 days (Day 0 to Day 13) and the mice were euthanized on Day 14. Sections of the lung tissues were prepared and dyed with H&E (hematoxylin-eosin staining), and stained images were obtained by electron microscopy. The airspace size in the cells in the H&E stained images obtained above was measured as a mean linear intercept (MLI; μm). Then, on Day 14, the total respiratory system elastance and the tissue elastance were measured by the method described in the above-mentioned “Measurement of Elastance.”

[9] = test system: poor lung function induced by porcine pancreatic elastase; assay: Test Example 3: FEV0.05/FVC in poor lung function induced by porcine pancreatic elastase, compared with muscarinic antagonists; format: in vivo, ICR mice; conditions: 38 μg/kg by airway administration once daily for 11 days, measured on Day 14 (FIG. 10)
Procedure: Measurement of a ratio of forced expiratory volume (FEV) in the first 0.05 seconds to forced vital capacity (FVC) (FEV0.05/FVC) was performed by using the above-mentioned computer-controlled small animal ventilator connected to a negative pressure reservoir (SCIREQ Scientific Respiratory Equipment Inc.). FEV0.05/PVC was determined by using the FlexiVent software. As with Test Example 1, 4 to 6 week old ICR mice were treated with porcine pancreatic elastase. […] On Day 14, FEV0.05/FVC was measured by the method described in the above-mentioned “Measurement of FEV0.05/FVC.”

[10] = test system: methacholine-induced airway constriction; assay: Test Example 4: methacholine-induced airway constriction, airway administration; format: in vivo, ICR mice
Procedure: as §2
Increase in airway resistance induced by methacoline was measured. 4 to 6 week old ICR mice received 1 mg/mL methacoline by nebulization over 20 seconds and this was repeated five times. After administration of methacoline was completed, the airway resistance was measured by a snap shot technique. All the data were analyzed by using FlexiVent software.
Different doses (μg/kg) of mepenzolate were administered to the mice via the airway, and one hour after administration, the mice received five exposures to nebulized methacoline, and then, the airway resistance for each dose was measured.
Furthermore, mepenzolate was administered to the mice at a dose of 38 μg/kg. Then, the mice received five exposures to nebulized methacoline at 6 hours, 24 hours, and 48 hours after drug administration. The airway resistance for each time length was measured.

[11] = 38 μg/kg via the airway, ELISA (FIG. 14)
[12] = different doses once via the airway 1 h before PPE, BALF 24 hours after PPE (FIG. 13)
[13] = 38 μg/kg once a day by inhalation (FIG. 17)
[14] = airway administration, Day 21 (FIG. 9)
[15] = airway administration, Day 14 (FIG. 3)
[16] = inhalation administration, Day 14 (FIG. 6)

SMILES: C[N+]1(C)CCC[C@@H](OC(=O)C(O)(c2ccccc2)c2ccccc2)C1 (racemic) [mepenzolate, mepenzolate bromide]
- airway resistance induced by methacoline [1]: showed an excellent effect
- KC in the BALF [2, 11]: decreased
- MCP-1 in the BALF [2, 11]: decreased
- MIP-2 in the BALF [2, 11]: decreased
- TNF-α in the BALF [2, 11]: decreased
- neutrophil count of the BALF [2, 12]: decreased dependently on the dose
- total cell count of the BALF [2, 12]: decreased dependently on the dose
- damage in the lung (H&E, MLI, elastance) [3]: improved damage in the lung
- damage in the lung induced by elastase (H&E, MLI, elastance, FEV0.05/FVC) [4]: improved damage in the lung induced by elastase
- damage in the alveolar wall ([5]; 38 μg/kg once a day by inhalation): improved
- mean linear intercept ([5]; 38 μg/kg once a day by inhalation (FIG. 15, 16)): suppressed
- tissue elastance [5, 13]: significantly improved
- total respiratory system elastance [5, 13]: significantly improved
- damage in the alveolar wall ([6]; airway administration once daily from 14 to 20 days after PPE treatment): improved dose-dependently
- mean linear intercept ([6]; airway administration once daily from 14 to 20 days after PPE treatment (FIG. 7, 8)): suppressed
- tissue elastance [6, 14]: significantly improved
- total respiratory system elastance [6, 14]: significantly improved
- inflammatory cells (total cell count, neutrophil count) in alveolar lavage fluid [7]: decrease in the inflammatory cells was observed
- damage in the alveolar wall ([8]; airway administration once daily for 14 days): improved
- mean linear intercept (MLI) ([8]; airway administration once daily for 14 days, Day 14 (FIG. 1, 2)): suppressed
- tissue elastance [8, 15]: significantly improved
- total respiratory system elastance [8, 15]: significantly improved
- damage in the alveolar wall ([8]; inhalation administration once daily for 14 days): improved
- mean linear intercept (MLI) ([8]; inhalation administration once daily for 14 days, Day 14 (FIG. 4, 5)): suppressed
- tissue elastance [8, 16]: significantly improved
- total respiratory system elastance [8, 16]: significantly improved
- suppressive effect on mean linear intercept, inhalation compared with airway administration ([8]; inhalation vs airway administration): inhalation administration had a slightly better suppressive effect
- recovering effect of vital capacity represented by FEV0.05/FVC reduced by PPE administration [9]: effectively exhibited a recovering effect
- airway resistance induced by methacoline, duration of effect ([10]; 38 μg/kg, methacoline at 6, 24 and 48 hours after administration (FIG. 12)): reduced the airway resistance even 24 hours after administration
- airway resistance induced by methacoline ([10]; airway administration at 0.04, 0.08, 0.38, 3.8 and 38.0 μg/kg, one hour after administration (FIG. 11)): reduced the airway resistance almost dose-dependently

SMILES: CN1CCN(CC(=O)N2c3ccccc3C(=O)Nc3cccnc32)CC1 [pirenzepine]
- recovering effect of vital capacity represented by FEV0.05/FVC reduced by PPE administration [9]: did not show a significant recovering effect
